Data set [1] is described as follows: Corrosiveness of alkaline substances to aluminum, change in appearance after 24 hours. The method, then:
For comparison with the aqueous solution shown in Table 3, a slurry liquid obtained by adding 10 parts by weight of water to 20 parts by weight of ordinary Portland cement was allowed to contact with an aluminum plate (A1050) not subjected to the surface treatment and an aluminum sash frame coated with a sulfuric acid anodized film at the spot, and a change in the appearance after 24 hours was observed.

The conditions of data set [2]: Table 2; cited from earlier work.
Data set [3] can be described thus: Confirmation of safety: presence or absence of danger (Table 2).
Experimental: The presence or absence of danger was evaluated based on the concentration adjustment work in Table 1 and whether or not it was subject to legal regulations.
Data set [4] can be described thus: pH and heat of dissolution of aqueous solutions that may give an alkaline stimulus (Table 1).

Like-named read-outs stand apart in the source and are kept apart here.

For the compound `[Ca+2].[OH-].[OH-]` [Calcium hydroxide], the “pH of aqueous solution” value in data set [1] stood at 12. For the same compound, the “Existance of legal regulation” value in data set [2] is reported as “No regulation”. In data set [3], the “Judging danger to human body” value is listed as “The risk is small” and the odor result is on record as “Odorless”.
Consider `O=C([O-])[O-].[K+].[K+]` [Potassium carbonate], for which the “pH of aqueous solution” value in data set [1] is given as 11. Further, the “Existance of legal regulation” value in data set [2] was “No regulation”. In addition, in data set [3], the “Judging danger to human body” value is “The risk is small” and the odor result is “Odorless”. Also, in data set [4], the “Generation of heat of dissolution” value is on record as “Medium”.
On to `[K+].[OH-]` [Potassium hydroxide], for which the “pH of aqueous solution” value in data set [1] amounted to 15. Besides, the “Existance of legal regulation” value in data set [2] is on record as “Drastic medicine”. For the same compound, in data set [3], the “Judging danger to human body” value was “Very dangerous” and the odor entry was “Odorless”. Moreover, the “Generation of heat of dissolution” value in data set [4] is given as “Large”.
Regarding `O=C([O-])CC(O)(CC(=O)[O-])C(=O)[O-].[Na+].[Na+].[Na+]` [Sodium citrate], the “Existance of legal regulation” value in data set [2] is reported as “No regulation”. Also, in data set [3], the “Judging danger to human body” value is reported as “The risk is small” and the odor result was “Odorless”.
As to `[Na+].[OH-]` [Sodium hydroxide], the “Existance of legal regulation” value in data set [2] is “Drastic medicine”. Besides, in data set [4] (Table 1, concentration adjustment of the aqueous solution), the “Generation of heat of dissolution” value is “Large”.
Turning to `N` [ammonia], the “Existance of legal regulation” value in data set [2] was “Drastic medicine”. In data set [3], the “Judging danger to human body” value is recorded as “Very dangerous” and the odor entry is “Pungent”.
Take `O=C([O-])[O-].[Na+].[Na+]` [sodium carbonate]: the “pH of aqueous solution” value in data set [1] is on record as 12. The “Existance of legal regulation” value in data set [2] was “No regulation”. Moreover, in data set [3], the “Judging danger to human body” value is given as “The risk is small” and the odor entry is on record as “Odorless”. Also, the “Generation of heat of dissolution” value in data set [4] is “Medium”.

(Values after patent publication US20220389230A1, “BLAST FURNACE SLAG-TYPE PAINT” (FUKKO CO., LTD., priority 2019, published 2022).)
